Eleven compounds from ChEMBL document CHEMBL1201862, “PubChem BioAssay data set” (2004) can be followed below.

The structures appear in SMILES notation.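 Protocol summary: plate cells (96-well), add compound at 5 concentrations, incubate 48 h, interpolate endpoints linearly. At the GI50, growth is halved.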 Activity calls are given as the source filed them. Rule as the data show it: active = GI50 up to about 1.1 µM and inactive = higher.

Among the test systems are A549; SK-MEL-28; HCT-116; DU-145; CAKI-1; CCRF-CEM; MDA-N; PC-3; HT-29; TK-10; SK-MEL-2; NCI-H226; KM12; BT-549; SNB-19; ACHN; MCF7.
What all share (experiment): growth of human tumour cells (NCI), 48 h

As to `FC(F)(F)c1cccc(-c2nc3nc(Cl)c(Cl)nc3[nH]2)c1`, the GI50 with A549 is 2 µM (inactive); with SK-MEL-28, 3.13 µM (inactive); in the test on HCT-116 it was 2.09 µM (inactive); with DU-145, 3.29 µM (inactive); in the test on CAKI-1, 2.73 µM (inactive); in the test with CCRF-CEM, 1.95 µM (inactive). For the same compound, the GI50 in the test on MDA-N was 2.18 µM (inactive); with PC-3, 2.5 µM (inactive); in the test with HT-29, 2.18 µM (inactive); in the test with TK-10 it was 4.95 µM (inactive); with SK-MEL-2, 1.56 µM (inactive); in the test with NCI-H226 it was 1.67 µM (inactive). Moreover, the GI50 was 2.69 µM (inactive) in the test on KM12; 3.18 µM (inactive) in the test with BT-549; 3.27 µM (inactive) in the test on SNB-19; 2.63 µM (inactive) in the test on ACHN; 0.0241 µM (active) in the test on MCF7.
In the case of `Cc1nc(O)nc2nc3cc(Cl)cc(Cl)c3c(NC(C)(CO)CO)c12`, the GI50 in the test with A549 is > 100 µM (inactive); in the test with SK-MEL-28, > 100 µM (inactive); in the test on HCT-116, 34 µM (inactive); in the test with DU-145, 29.2 µM (inactive); in the test with CAKI-1 it was 94.6 µM (inactive); in the test on CCRF-CEM it was > 100 µM (inactive). Also, the GI50 is > 100 µM (inactive) in the test on MDA-N; > 100 µM (inactive) with PC-3; > 100 µM (inactive) in the test on HT-29; 27.4 µM (inactive) in the test with TK-10; 29.1 µM (inactive) in the test with SK-MEL-2; > 100 µM (inactive) in the test with NCI-H226. Further, the GI50 was > 100 µM (inactive) in the test on KM12; 35.6 µM (inactive) in the test on BT-549; 21.4 µM (inactive) in the test on SNB-19; 50.5 µM (inactive) in the test on ACHN; 1.55 µM (inactive) in the test on MCF7.
For `COc1ccc(C(OCC2OC3(COC(c4ccccc4)(c4ccc(OC)cc4)c4ccc(OC)cc4)C(Oc4nc(=O)ccn43)C2O)(c2ccccc2)c2ccc(OC)cc2)cc1` (configuration not stated), the GI50 with A549, in the test with SK-MEL-28, in the test with HCT-116, with DU-145, in the test with CAKI-1 and with CCRF-CEM was > 100 µM (inactive) each time. Also, the GI50 with MDA-N, in the test on PC-3, with HT-29, with TK-10, in the test with SK-MEL-2 and in the test on NCI-H226 was > 100 µM (inactive) in each case. Besides, the GI50 in the test on KM12 is > 100 µM (inactive); in the test on BT-549, > 100 µM (inactive); in the test with SNB-19 it was 88.9 µM (inactive); with ACHN, > 100 µM (inactive); in the test on MCF7 it was > 100 µM (inactive).
In the case of `O=[N+]([O-])c1ccc(C2=NOC(c3ccc(Cl)cc3)N2C23CC4CC(CC(C4)C2)C3)cc1` (configuration not stated), the GI50 was 56.9 µM (inactive) in the test with A549; > 100 µM (inactive) in the test on SK-MEL-28; 28.1 µM (inactive) in the test with HCT-116; > 100 µM (inactive) in the test with DU-145; 16.6 µM (inactive) with CAKI-1; > 100 µM (inactive) in the test with CCRF-CEM. Also, the GI50 was > 100 µM (inactive) in the test on MDA-N; > 100 µM (inactive) in the test with PC-3; > 100 µM (inactive) in the test on HT-29; > 100 µM (inactive) in the test on TK-10; 20.2 µM (inactive) in the test with SK-MEL-2; 64.9 µM (inactive) in the test on NCI-H226. Also, the GI50 in the test with KM12 was > 100 µM (inactive); in the test with BT-549, > 100 µM (inactive); in the test on SNB-19, > 100 µM (inactive); with ACHN, 9.71 µM (inactive); in the test with MCF7, 40.6 µM (inactive).
Take `COc1cc2c3cc1Oc1c(OC)c(OC)cc4c1C(Cc1ccc(O)c(c1)Oc1ccc(cc1)CC3N(C)CC2)CN(C)C4` (configuration not stated): the GI50 was 22.5 µM (inactive) with A549; 16.8 µM (inactive) in the test with SK-MEL-28; 6.05 µM (inactive) in the test on HCT-116; 17.7 µM (inactive) in the test on DU-145; 20.2 µM (inactive) with CAKI-1; 2.07 µM (inactive) in the test with CCRF-CEM. Further, the GI50 in the test with MDA-N was 12.2 µM (inactive); in the test on PC-3, 21.1 µM (inactive); in the test on HT-29 it was 3.24 µM (inactive); in the test with TK-10 it was 16.1 µM (inactive); with SK-MEL-2 it was 18.3 µM (inactive); in the test with NCI-H226, 28.7 µM (inactive). The GI50 was 13.2 µM (inactive) with KM12; 14.8 µM (inactive) with BT-549; 24.3 µM (inactive) in the test with SNB-19; 27.4 µM (inactive) with ACHN; 16.4 µM (inactive) in the test with MCF7.
Regarding `COC(=O)c1cc(C)ccc1C1CN=NC12Cc1c(C)cc(C)cc1C2=O` (configuration not stated), the GI50 in the test on A549 was 26.7 µM (inactive); in the test on SK-MEL-28, 51.1 µM (inactive); in the test with HCT-116, 14.7 µM (inactive); in the test on DU-145 it was 28.4 µM (inactive); in the test on CAKI-1, 31.4 µM (inactive); in the test with CCRF-CEM, 26.5 µM (inactive). Also, the GI50 in the test on MDA-N is 14.4 µM (inactive); in the test on PC-3, 27.5 µM (inactive); with HT-29, 18.3 µM (inactive); in the test on TK-10 it was 34.1 µM (inactive); with SK-MEL-2, 16.4 µM (inactive); with NCI-H226 it was 35.8 µM (inactive). For the same compound, the GI50 in the test with KM12 is 16.5 µM (inactive); in the test on BT-549 it was 24.7 µM (inactive); in the test with SNB-19, 31 µM (inactive); in the test on ACHN it was 40.5 µM (inactive); with MCF7 it was 20.6 µM (inactive).
Take `CCOC1OC(COC(=O)C(C)(C)C)C(O)CC1n1cc(C)c(=O)[nH]c1=O` (configuration not stated): the GI50 with A549, in the test on SK-MEL-28, in the test on HCT-116, with DU-145, with CAKI-1 and in the test with CCRF-CEM was > 100 µM (inactive) throughout. For the same compound, the GI50 with MDA-N, with PC-3, in the test on HT-29, in the test on TK-10, in the test on SK-MEL-2 and with NCI-H226 was > 100 µM (inactive) in each case. Also, the GI50 with KM12, in the test with BT-549, in the test on SNB-19, in the test on ACHN and with MCF7 was > 100 µM (inactive) in each case.
As to `CS[C@]12[C@@H]3C(=O)N(C)C(=O)[C@@H]3[C@](C)(C(=O)N1C)C(=O)N2c1ccccc1`, the GI50 in the test with A549, in the test on SK-MEL-28, in the test with HCT-116, with DU-145, in the test with CAKI-1 and with CCRF-CEM was > 100 µM (inactive) in each case. The GI50 in the test on MDA-N, in the test on PC-3, in the test on HT-29, in the test with TK-10, with SK-MEL-2 and with NCI-H226 was > 100 µM (inactive) in each case. Also, the GI50 with KM12, in the test on BT-549, in the test on SNB-19, in the test with ACHN and in the test on MCF7 was > 100 µM (inactive) in each case.
For `CCOC(CCNCC(OCC)OCC)OCC`, the GI50 in the test on A549, in the test with SK-MEL-28, in the test with HCT-116, in the test with DU-145, in the test with CAKI-1 and in the test on CCRF-CEM was > 10 µM (inactive) each time. Besides, the GI50 with MDA-N, with PC-3, in the test on HT-29, in the test with TK-10, with SK-MEL-2 and in the test with NCI-H226 was > 10 µM (inactive) in each case. Moreover, the GI50 in the test on KM12, in the test on BT-549, with SNB-19, with ACHN and in the test with MCF7 was > 10 µM (inactive) each time.
For the compound `O=C1CNNC(CSc2nc3ccc(I)cc3c(=O)n2Cc2ccccc2)=N1`, the GI50 in the test with A549 was 38.5 µM (inactive); in the test with SK-MEL-28 it was 20.9 µM (inactive); with HCT-116 it was 20.8 µM (inactive); in the test with DU-145, 22.2 µM (inactive); with CAKI-1, 15 µM (inactive); with CCRF-CEM, 15.4 µM (inactive). Also, the GI50 was 27.5 µM (inactive) with MDA-N; 24.5 µM (inactive) with PC-3; 33.7 µM (inactive) with HT-29; 30.1 µM (inactive) in the test on TK-10; 16.4 µM (inactive) in the test with SK-MEL-2; 18.1 µM (inactive) with NCI-H226. In addition, the GI50 is 28.1 µM (inactive) with KM12; 27.5 µM (inactive) in the test with BT-549; 53.5 µM (inactive) with SNB-19; 16.3 µM (inactive) in the test with ACHN; 28.4 µM (inactive) with MCF7.
On to `S=C1N=C2C(=N1)n1c3c(c4ccccc41)CCCC23` (configuration not stated), for which the GI50 in the test on A549 is 29.2 µM (inactive); in the test on SK-MEL-28, > 100 µM (inactive); in the test on HCT-116, 35.2 µM (inactive); in the test with DU-145, > 100 µM (inactive); in the test with CAKI-1, 42.4 µM (inactive); in the test on CCRF-CEM it was 48.6 µM (inactive). Moreover, the GI50 was 63.8 µM (inactive) in the test with MDA-N; 48.5 µM (inactive) in the test with PC-3; 35.1 µM (inactive) with HT-29; > 100 µM (inactive) with TK-10; > 100 µM (inactive) with SK-MEL-2; 34.9 µM (inactive) with NCI-H226. Further, the GI50 was 49.2 µM (inactive) in the test on KM12; 59.2 µM (inactive) with BT-549; 56.8 µM (inactive) with SNB-19; > 100 µM (inactive) in the test on ACHN; 24 µM (inactive) with MCF7.
